{
  "source": "PubChem BioAssay (NCI)",
  "assay_in_all_cases": "NCI tumour cell line growth inhibition, 48 h",
  "key": {"MDA-N": {"system": "MDA-N"}, "BT-549 breast": {"system": "BT-549 breast"}, "SF-268 CNS": {"system": "SF-268 CNS"}, "DMS 114 small cell lung": {"system": "DMS 114 small cell lung"}, "EKVX NSCLC": {"system": "EKVX NSCLC"}, "KM12 colon": {"system": "KM12 colon"}, "KM20L2 colon": {"system": "KM20L2 colon"}, "M19-MEL melanoma": {"system": "M19-MEL melanoma"}, "MALME-3M melanoma": {"system": "MALME-3M melanoma"}, "UACC-62 melanoma": {"system": "UACC-62 melanoma"}},
  "note": "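Protocol summary: plate cells (96-well), add compound at 5 concentrations, incubate 48 h, interpolate endpoints linearly. Here, GI50 denotes the concentration required for 50% inhibition of growth. TGI: total growth inhibition.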",
  "data": [
    {"smiles": "COP(=O)(OC)C(Cc1c[nH]c2ccccc12)NC(=O)OCc1ccccc1", "note": "(centres undefined)", "values": [
      {"measurement": "TGI", "setting": "MDA-N", "result": "> 100", "unit": "µM"}
    ]},
    {"smiles": "O=C(NC1CCN(Cc2ccccc2)CC1)c1cc2nc(-c3ccc(Cl)s3)cc(C(F)(F)F)n2n1", "values": [
      {"measurement": "GI50", "setting": "BT-549 breast", "result": "> 100", "unit": "µM"},
      {"measurement": "TGI", "setting": "BT-549 breast", "result": "> 100", "unit": "µM"},
      {"measurement": "GI50", "setting": "SF-268 CNS", "result": "> 100", "unit": "µM"},
      {"measurement": "TGI", "setting": "SF-268 CNS", "result": "> 100", "unit": "µM"}
    ]},
    {"smiles": "N#C[S-].[Nd+3].c1ccc(-c2ccccn2)nc1.c1ccc(-c2ccccn2)nc1.c1ccc(-c2ccccn2)nc1", "values": [
      {"measurement": "GI50", "setting": "DMS 114 small cell lung", "result": 15.7, "unit": "µM"},
      {"measurement": "TGI", "setting": "DMS 114 small cell lung", "result": 67.1, "unit": "µM"},
      {"measurement": "GI50", "setting": "EKVX NSCLC", "result": 5.78, "unit": "µM"},
      {"measurement": "TGI", "setting": "EKVX NSCLC", "result": "> 100", "unit": "µM"},
      {"measurement": "GI50", "setting": "KM12 colon", "result": 5.62, "unit": "µM"},
      {"measurement": "TGI", "setting": "KM12 colon", "result": "> 100", "unit": "µM"},
      {"measurement": "GI50", "setting": "KM20L2 colon", "result": 2.38, "unit": "µM"},
      {"measurement": "TGI", "setting": "KM20L2 colon", "result": 6.08, "unit": "µM"},
      {"measurement": "GI50", "setting": "M19-MEL melanoma", "result": 9.78, "unit": "µM"},
      {"measurement": "TGI", "setting": "M19-MEL melanoma", "result": 54, "unit": "µM"},
      {"measurement": "GI50", "setting": "MALME-3M melanoma", "result": 18.5, "unit": "µM"},
      {"measurement": "TGI", "setting": "MALME-3M melanoma", "result": 68.4, "unit": "µM"},
      {"measurement": "GI50", "setting": "UACC-62 melanoma", "result": 5.26, "unit": "µM"},
      {"measurement": "TGI", "setting": "UACC-62 melanoma", "result": 28.2, "unit": "µM"}
    ]}
  ]
}
